In patent US8178690B2, “Compounds and methods for inhibiting the interaction of BCL proteins with binding partners” (Infinity Pharmaceuticals, Inc., priority 2006, dated 2012):

Legend:
Bcl-2 = Bcl-2 (Homo sapiens, UniProt P10415); assay: Bcl-2 binding affinity analysis (fluorescence polarization binding assay); conditions: read-out: BcI2 (Ki, Bcl-2 binding affinity)
Source text: (§1) Bcl-2 and Bcl-xL binding may be determined using a variety of known methods. One such assay is a sensitive and quantitative in vitro binding assay using fluorescence polarization (FP) described by Wang, J.-L.; Zhang, Z-J.; Choksi, S.; Sjam. S.; Lu, Z.; Croce, C. M.; Alnemri, E. S.; Komgold, R.; Huang, Z. Cell permeable Bcl-2 binding peptides: a chemical approach to apoptosis induction in tumor cells. Cancer Res. 2000, 60, 1498-1502).
(§2) Bcl-2 and Bcl-xL binding affinity analysis data is presented below for various compounds of the invention.

Bcl-xL = Bcl-xL (Homo sapiens, UniProt Q07817); assay: Bcl-xL binding affinity analysis (fluorescence polarization binding assay); conditions: read-out: BcI-XI (Ki, Bcl-xL binding affinity)
Source text: as §1, §2

Chain of Bcl-2 (P10415 whole entry): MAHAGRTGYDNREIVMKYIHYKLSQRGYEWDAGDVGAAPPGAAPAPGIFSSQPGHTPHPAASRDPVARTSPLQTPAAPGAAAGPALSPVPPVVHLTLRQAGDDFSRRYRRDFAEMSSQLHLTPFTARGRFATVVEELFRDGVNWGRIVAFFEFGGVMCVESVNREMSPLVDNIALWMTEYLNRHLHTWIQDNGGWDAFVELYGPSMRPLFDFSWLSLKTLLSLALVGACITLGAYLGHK
Chain of Bcl-xL (Q07817 whole entry): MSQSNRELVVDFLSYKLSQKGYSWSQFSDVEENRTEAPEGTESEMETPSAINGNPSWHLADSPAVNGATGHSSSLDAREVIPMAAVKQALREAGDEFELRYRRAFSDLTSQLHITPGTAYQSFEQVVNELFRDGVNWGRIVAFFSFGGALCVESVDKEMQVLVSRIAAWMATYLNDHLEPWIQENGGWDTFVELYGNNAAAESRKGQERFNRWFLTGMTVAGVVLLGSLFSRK

| SMILES | Ki (Bcl-2) | Ki (Bcl-xL) |
| --- | --- | --- |
| COc1c(CN2O[C@@H](CO)[C@@H]([C@H](C)O)[C@H]2C(=O)N[C@H]2C[C@H]3C[C@@H]([C@@H]2C)C3(C)C)cccc1-c1cc(C(=O)N[C@H](CN(C)C)[C@H](OC)c2ccccc2)cc(N(C)C)c1 [Compound 152] | < 1 nM | < 1000 nM |
| COc1c(CN2O[C@@H](CO)[C@@H]([C@H](C)O)[C@H]2C(=O)N[C@H]2C[C@H]3C[C@@H]([C@@H]2C)C3(C)C)cccc1-c1cc(C(=O)N[C@H](CN2CCCC2)[C@H](O)c2ccccc2)cc(N(C)C)c1 [Compound 160] | < 1 nM | < 1000 nM |
| CNC[C@H](Cc1ccccc1)NC(=O)c1cc(-c2cccc(CN3O[C@@H](CO)[C@@H]([C@H](C)O)[C@H]3C(=O)N[C@H]3C[C@H]4C[C@@H]([C@@H]3C)C4(C)C)c2OC)cc(N(C)C)c1 [Compound 165] | < 1 nM | < 1000 nM |
| COc1c(CN2O[C@@H](CO)[C@@H]([C@H](C)O)[C@H]2C(=O)N[C@H]2C[C@H]3C[C@@H]([C@@H]2C)C3(C)C)cccc1-c1cc(C(=O)N[C@@H](CN(C)C)CS(=O)(=O)C(C)(C)C)cc(N(C)C)c1 [Compound 170] | 1 to 5 nM | 1000 to 5000 nM |
| CCOc1c(CN2O[C@@H](CO)[C@@H]([C@H](C)O)[C@H]2C(=O)N[C@H]2C[C@H]3C[C@@H]([C@@H]2C)C3(C)C)cccc1-c1cc(C(=O)N[C@H](CN(C)C)CS(C)(=O)=O)cc(N(C)C)c1 [Compound 176] | 1 to 5 nM | 1000 to 5000 nM |
| CCOc1c(CN2O[C@@H](CO)[C@@H]([C@H](C)O)[C@H]2C(=O)N[C@H]2C[C@H]3C[C@@H]([C@@H]2C)C3(C)C)cccc1-c1cc(C(=O)N[C@@H](Cc2ccccc2)CN2CCCC2)cc(N(C)C)c1 [Compound 182] | < 1 nM | < 1000 nM |
| COc1c(CN2O[C@@H](CO)[C@@H]([C@H](C)O)[C@H]2C(=O)N[C@H]2C[C@H]3CC([C@@H]2C)C3(C)C)ccc(Cl)c1-c1cc(C(=O)N[C@@H](CC(C)C)CN(C)C)cc(N(C)C)c1 [Compound 183] | 1 to 5 nM | 1000 to 5000 nM |
| COc1c(CN2O[C@@H](CO)[C@@H]([C@H](C)O)[C@H]2C(=O)N[C@H]2C[C@H]3C[C@@H]([C@@H]2C)C3(C)C)cccc1-c1cc(C(=O)N2CCN(C)C[C@@H]2Cc2ccccc2)cc(N(C)C)c1 [Compound 193] | 1 to 5 nM | 1000 to 5000 nM |
| COc1c(CN2O[C@@H](CO)[C@@H]([C@H](C)O)[C@H]2C(=O)N[C@H]2C[C@H]3C[C@@H]([C@@H]2C)C3(C)C)cccc1-c1cc2c(c(C(=O)N[C@H](CN(C)C)CC(C)(C)C)c1)OC(C)(C)C2 [Compound 196] | < 1 nM | < 1000 nM |
| COc1c(CN2O[C@@H](CO)[C@@H]([C@H](C)O)[C@H]2C(=O)N[C@H]2C[C@H]3C[C@@H]([C@@H]2C)C3(C)C)cccc1-c1cc2c(c(C(=O)N[C@H](CN(C)C)CC(C)(C)C)c1)OCO2 [Compound 202] | < 1 nM | < 1000 nM |
| COc1c(CN2O[C@@H](CO)[C@@H]([C@H](C)O)[C@H]2C(=O)N[C@H]2C[C@H]3C[C@@H]([C@@H]2C)C3(C)C)cccc1-c1cc(C(=O)N[C@@H](Cc2cccc(N)c2)CN(C)C)cc(N(C)C)c1 [Compound 206] | < 1 nM | < 1000 nM |
| COc1c(CN2O[C@@H](CN)[C@@H]([C@H](C)O)[C@H]2C(=O)N[C@H]2C[C@H]3C[C@@H]([C@@H]2C)C3(C)C)cccc1-c1cc(C(=O)N[C@@H]2CCN(C)C2)cc(N(C)C)c1 [Compound 213] | < 1 nM | > 10000 nM |
| CCOc1c(CN2O[C@@H](CN)[C@@H]([C@H](C)O)[C@H]2C(=O)N[C@H]2C[C@H]3C[C@@H]([C@@H]2C)C3(C)C)cccc1-c1cc(C(=O)N[C@@H](Cc2ccccc2)CN(C)C)cc(N(C)C)c1 [Compound 218] | < 1 nM | 1000 to 5000 nM |
| C[C@@H]1[C@@H](NC(=O)[C@@H]2[C@H]([C@H](C)O)[C@H](CO)ON2Cc2cccc(-c3cc(C(=O)N[C@@H](Cc4ccccc4)CN(C)C)cc(N(C)C)c3)c2OCCN2CCOCC2)C[C@H]2C[C@@H]1C2(C)C [Compound 230] | < 1 nM | < 1000 nM |
| COc1c(CN2O[C@@H](CO)[C@@H]([C@H](C)O)[C@H]2C(=O)N[C@H]2C[C@H]3C[C@@H]([C@@H]2C)C3(C)C)cccc1-c1cc(C(=O)N[C@@H](Cc2ccccc2)CN(C)C)cc(N2CCOCC2)c1 [Compound 240] | < 1 nM | 1000 to 5000 nM |
| COc1c(CN2O[C@@H](CO)[C@@H]([C@H](C)O)[C@H]2C(=O)N[C@H]2C[C@H]3C[C@@H]([C@@H]2C)C3(C)C)cccc1-c1cc(C(=O)N2[C@H](CN(C)C)CC[C@@H]2c2ccccc2)cc(N(C)C)c1 [Compound 247] | < 1 nM | < 1000 nM |
| COc1c(CN2O[C@@H](CO)[C@@H]([C@H](C)O)[C@H]2C(=O)N[C@H]2C[C@H]3C[C@@H]([C@@H]2C)C3(C)C)cccc1-c1cc(C(=O)N[C@@H](Cc2cccs2)CN(C)C)cc(N(C)C)c1 [Compound 251] | < 1 nM | < 1000 nM |

| SMILES | Ki (Bcl-2) | Ki (Bcl-xL) |
| --- | --- | --- |
| COc1c(CN2O[C@@H](CN)[C@@H]([C@H](C)O)[C@H]2C(=O)N[C@H]2C[C@H]3C[C@@H]([C@@H]2C)C3(C)C)cccc1-c1cc(C(=O)N[C@@H](Cc2ccccn2)CN(C)C)cc(N(C)C)c1 [Compound 252] | < 1 nM | 1000 to 5000 nM |
| COc1c(CN2O[C@@H](CO)[C@@H]([C@H](C)O)[C@H]2C(=O)N[C@H]2C[C@H]3C[C@@H]([C@@H]2C)C3(C)C)cccc1-c1cc(Cl)cc(C(=O)N[C@@H](Cc2ccccc2)CN(C)C)c1 [Compound 255] | < 1 nM | < 1000 nM |
| COc1c(CN2O[C@@H](CO)[C@@H]([C@H](C)O)[C@H]2C(=O)N[C@H]2C[C@H]3C[C@@H]([C@@H]2C)C3(C)C)cccc1-c1cc2c(c(C(=O)N[C@H](CN(C)C)CC(C)(C)C)c1)OCC2 [Compound 256] | < 1 nM | < 1000 nM |
| COc1c(CN2O[C@@H](CO)[C@@H]([C@H](C)O)[C@H]2C(=O)N[C@H]2C[C@H]3C[C@@H]([C@@H]2C)C3(C)C)cccc1-c1cc(C(=O)N[C@H](CN(C)C)CC(C)(C)C)c(Br)c(N(C)C)c1 [Compound 257] | < 1 nM | < 1000 nM |
| CCOc1c(CN2O[C@@H](CO)[C@@H]([C@H](C)O)[C@H]2C(=O)N[C@H]2C[C@H]3C[C@@H]([C@@H]2C)C3(C)C)cccc1-c1cc(C(=O)N[C@H](CC(C)C)CN(C)C)cc(N(C)C)c1 [Compound 259] | < 1 nM | 1000 to 5000 nM |
| COc1c(CN2O[C@@H](CO)[C@@H]([C@H](C)O)[C@H]2C(=O)N[C@H]2C[C@H]3C[C@@H]([C@@H]2C)C3(C)C)cccc1-c1cc(C(=O)N[C@@H](CC(C)C)C(N)=O)cc(N(C)C)c1 [Compound 260] | 1 to 5 nM | < 1000 nM |
| COc1c(CN2O[C@@H](CO)[C@@H]([C@H](C)O)[C@H]2C(=O)N[C@H]2C[C@H]3C[C@@H]([C@@H]2C)C3(C)C)cccc1-c1cc(NC(C)=O)cc(C(=O)N[C@@H](CC(C)C)CN(C)C)c1 [Compound 262] | 5 to 9 nM | 1000 to 5000 nM |
| COc1c(CN2O[C@@H](CO)[C@@H]([C@H](C)O)[C@H]2C(=O)N[C@H]2C[C@H]3C[C@@H]([C@@H]2C)C3(C)C)cccc1-c1cc(C(=O)N[C@@H](CC(C)C)CN(C)C)cc([N+](=O)[O-])c1 [Compound 263] | < 1 nM | < 1000 nM |
| COc1c(CN2O[C@@H](CO)[C@@H]([C@H](C)O)[C@H]2C(=O)N[C@H]2C[C@H]3C[C@@H]([C@@H]2C)C3(C)C)cccc1-c1cc(C(=O)N[C@@H](Cc2ccccc2)CN(C)C)cc([N+](=O)[O-])c1 [Compound 264] | < 1 nM | < 1000 nM |
| COc1c(CN2O[C@@H](CO)[C@@H]([C@H](C)O)[C@H]2C(=O)N[C@H]2C[C@H]3C[C@@H]([C@@H]2C)C3(C)C)cccc1-c1cc(C(=O)N[C@@H](CCc2ccccc2)CN(C)C)cc([N+](=O)[O-])c1 [Compound 265] | < 1 nM | < 1000 nM |
| CCN(CC)c1cc(C(=O)N[C@@H](CC(C)C)CN(C)C)cc(-c2cccc(CN3O[C@@H](CO)[C@@H]([C@H](C)O)[C@H]3C(=O)N[C@H]3C[C@H]4C[C@@H]([C@@H]3C)C4(C)C)c2OC)c1 [Compound 267] | < 1 nM | 1000 to 5000 nM |
| COc1c(CN2O[C@@H](CO)[C@@H]([C@H](C)O)[C@H]2C(=O)N[C@H]2C[C@H]3C[C@@H]([C@@H]2C)C3(C)C)cccc1-c1cc(C(=O)N[C@@H](CC(C)C)CN(C)C)cc(N2CCCCC2)c1 [Compound 268] | 1 to 5 nM | 1000 to 5000 nM |
| CCNc1cc(C(=O)N[C@@H](CC(C)C)CN(C)C)cc(-c2cccc(CN3O[C@@H](CO)[C@@H]([C@H](C)O)[C@H]3C(=O)N[C@H]3C[C@H]4C[C@@H]([C@@H]3C)C4(C)C)c2OC)c1 [Compound 269] | < 1 nM | < 1000 nM |
| COc1c(CN2O[C@@H](CO)[C@@H]([C@H](C)O)[C@H]2C(=O)N[C@H]2C[C@H]3C[C@@H]([C@@H]2C)C3(C)C)cccc1-c1cc(NCC(C)C)cc(C(=O)N[C@@H](CC(C)C)CN(C)C)c1 [Compound 270] | 1 to 5 nM | 1000 to 5000 nM |
| COc1c(CN2O[C@@H](CO)[C@@H]([C@H](C)O)[C@H]2C(=O)N[C@H]2C[C@H]3C[C@@H]([C@@H]2C)C3(C)C)cccc1-c1cc(C(=O)N[C@@H](CC(C)C)CN(C)C)cc(N(C)CC(C)C)c1 [Compound 271] | < 1 nM | < 1000 nM |
| COc1c(CN2O[C@@H](CN)[C@@H]([C@H](C)O)[C@H]2C(=O)N[C@H]2C[C@H]3C[C@@H]([C@@H]2C)C3(C)C)cccc1-c1cc(C(=O)N[C@H](CN(C)C)[C@H](O)c2ccccc2)cc(N(C)C)c1 [Compound 272] | < 1 nM | 1000 to 5000 nM |
| COc1c(-c2cc(C(=O)N[C@@H](Cc3ccccc3)CN(C)C)cc(N(C)C)c2)ccc(Cl)c1CN1O[C@@H](CO)[C@@H]([C@H](C)O)[C@H]1C(=O)N[C@H]1C[C@H]2C[C@@H]([C@@H]1C)C2(C)C [Compound 274] | < 1 nM | 1000 to 5000 nM |
